# US11098010B2 (priority 2017, dated 2021)
# Structures can show the parent of a compound that is named as a salt. Where two headings read alike, the source gives them in different places.
# System: HBV rcDNA in HepDE19 cells
# Assay: HepDE19 assay with bDNA quantitation of HBV rcDNA
# Type: cell-based, hepatitis B virus (HBV)
# [1] = Hepatitis B virus, HepDE19, 168 h, read-out: DE-19 bDNA EC50 (μM), HepDE19 cells, inhibition of rcDNA formation, 7 day incubation, top concentration 25 μM
# [2] = Hepatitis B virus, HepDE19, 168 h, HepDE19 cells, inhibition of rcDNA formation, 7 day incubation, top concentration 25 μM, read-out: DE-19 bDNA EC50
# [3] = read-out: DE-19 bDNA EC50, HepDE19 cells, inhibition of rcDNA formation, 7 day incubation, top concentration 25 μM
# [4] = HepDE19 cells, inhibition of rcDNA formation, 7 day incubation, top concentration 25 μM, read-out: DE-19 bDNA EC50
smiles,measurement,setting,value
"O=C(Nc1ccc(F)c(Cl)c1)c1ccc(F)c2c1CC[C@@H]2NS(=O)(=O)c1ccccn1 [Compound 184, (S)—N-(3-Chloro-4-fluorophenyl)-7-fluoro-1-(pyridine-2-sulfonamido)-2,3-dihydro-1H-indene-4-carboxamide Hydrochloride]",EC50,[1],0.66 µM
"COCC(=O)N1CCC(COC(=O)N[C@H]2CCc3c(C(=O)Nc4ccc(F)c(Cl)c4)ccc(F)c32)CC1 [Compound 185, O-(1-(2-Methoxyacetyl)piperidin-4-yl)methyl, N—(S)-(4-((3-chloro-4-fluorophenyl)carbamoyl)-7-fluoro-2,3-dihydro-1H-inden-1-yl) carbamate]",EC50,[1],0.37 µM
"O=C(Nc1ccc(F)c(Cl)c1)c1ccc(F)c2c1CC[C@@H]2Nc1ncc(O)cn1 [Compound 186, (S)-N-(3-chloro-4-fluorophenyl)-7-fluoro-1-((5-hydroxypyrimidin-2-yl)amino)-2,3-dihydro-1H-indene-4-carboxamide]",EC50,[2],1.6 µM
"COC(=O)NC1COc2c(C(=O)Nc3ccc(F)c(Cl)c3)ccc(F)c21 (stereo not shown) [Compound 187, O-Methyl, N-(7-((3-chloro-4-fluorophenyl)carbamoyl)-4-fluoro-2,3-dihydrobenzofuran-3-yl) carbamate]",EC50,[3],23 µM
"COC(=O)NC1COc2c(C(=O)Nc3ccc(F)c(Cl)c3)ccc(F)c21 (stereo not shown) [Compound 188, O-Methyl, N-(7-((3-chloro-4-fluorophenyl)carbamoyl)-4-fluoro-2,3-dihydrobenzofuran-3-yl) carbamate]",EC50,[3],5.3 µM
"O=C(N[C@H]1CCc2c(C(=O)Nc3ccc(F)c(Cl)c3)ccc(F)c21)OCc1cc[nH]n1 [Compound 193, O-(1H-Pyrazol-3-yl)methyl, N—(S)-(4-((3-chloro-4-fluorophenyl)carbamoyl)-7-fluoro-2,3-dihydro-1H-inden-1-yl) carbamate]",EC50,[1],0.06 µM
Cn1ccc(CNC(=O)N[C@H]2CCc3c(C(=O)Nc4ccc(F)c(Cl)c4)ccc(F)c32)n1 [Compound 194],EC50,[1],0.16 µM
"O=C(N[C@H]1CCc2c(C(=O)Nc3ccc(F)c(Cl)c3)ccc(F)c21)OCc1nc[nH]n1 [Compound 195, O-(1H-1,2,4-Triazol-3-yl)methyl, N—(S)-(4-((3-chloro-4-fluorophenyl)carbamoyl)-7-fluoro-2,3-dihydro-1H-inden-1-yl) carbamate]",EC50,[2],0.1 µM
"O=C(Nc1ccc(F)c(Cl)c1)c1ccc(F)c2c1CC[C@@H]2Nc1ccncn1 [Compound 196, (S)—N-(3-Chloro-4-fluorophenyl)-7-fluoro-1-(pyrimidin-4-ylamino)-2,3-dihydro-1H-indene-4-carboxamide]",EC50,[1],0.63 µM
"COc1ccc(Cn2ccc3cnc(N[C@H]4CCc5c(C(=O)Nc6ccc(F)c(Cl)c6)ccc(F)c54)nc32)cc1 [Compound 197, (S)—N-(3-Chloro-4-fluorophenyl)-7-fluoro-1-((7-(4-methoxybenzyl)-7H-pyrrolo[2,3-d]pyrimidin-2-yl)amino)-2,3-dihydro-1H-indene-4-carboxamide]",EC50,[1],1.2 µM
"O=C1CCC[C@H](COC(=O)N[C@H]2CCc3c(C(=O)Nc4ccc(F)c(Cl)c4)ccc(F)c32)N1 [Compound 198, O—((R)-6-Oxopiperidin-2-yl)methyl, N—((S)-4-((3-chloro-4-fluorophenyl)carbamoyl)-7-fluoro-2,3-dihydro-1H-inden-1-yl) carbamate]",EC50,[1],0.22 µM
"O=C1CC[C@@H](OC(=O)N[C@H]2CCc3c(C(=O)Nc4ccc(F)c(Cl)c4)ccc(F)c32)CN1 [Compound 199, O—(R)-6-Oxopiperidin-3-yl, N—((S)-4-((3-chloro-4-fluorophenyl)carbamoyl)-7-fluoro-2,3-dihydro-1H-inden-1-yl)carbamate]",EC50,[2],0.25 µM
"O=C1CC[C@H](OC(=O)N[C@H]2CCc3c(C(=O)Nc4ccc(F)c(Cl)c4)ccc(F)c32)CN1 [Compound 200, O—(S)-6-Oxopiperidin-3-yl, N—((S)-4-((3-chloro-4-fluorophenyl)carbamoyl)-7-fluoro-2,3-dihydro-1H-inden-1-yl) carbamate]",EC50,[2],0.43 µM
"COC(=O)NC1COc2c(C(=O)Nc3ccc(F)c(C)c3)ccc(F)c21 (stereo not shown) [Compound 201, O-Methyl, N-(4-fluoro-7-((4-fluoro-3-methylphenyl)carbamoyl)-2,3-dihydrobenzofuran-3-yl) carbamate]",EC50,[3],5.5 µM
"COC(=O)NC1COc2c(C(=O)Nc3ccc(F)c(C)c3)ccc(F)c21 (stereo not shown) [Compound 202, O-Methyl, N-(4-fluoro-7-((4-fluoro-3-methylphenyl)carbamoyl)-2,3-dihydrobenzofuran-3-yl) carbamate]",EC50,[3],0.42 µM
"Cc1cc(NC(=O)c2ccc(F)c3c2OCC3NC(=O)OCc2ccccn2)ccc1F (stereo not shown) [Compound 205, O-Pyridin-2-ylmethyl, N-(4-fluoro-7-((4-fluoro-3-methylphenyl)carbamoyl)-2,3-dihydrobenzofuran-3-yl) carbamate]",EC50,[2],3.7 µM
"O=C(NC1CC1)N[C@H]1CCc2c(C(=O)Nc3ccc(F)c(Cl)c3)ccc(F)c21 [Compound 209, (S)—N-(3-Chloro-4-fluorophenyl)-1-(3-cyclopropylureido)-7-fluoro-2,3-dihydro-1H-indene-4-carboxamide]",EC50,[2],0.33 µM
"COC(=O)NC1c2c(F)ccc(C(=O)Nc3ccc(F)c(Cl)c3)c2CC1(F)F (stereo not shown) [Compound 210, O-methyl, N-((4-((3-chloro-4-fluorophenyl)carbamoyl)-2,2,7-trifluoro-2,3-dihydro-1H-inden-1-yl) carbamate]",EC50,[4],15 µM
"O=C1CCC[C@@H](COC(=O)N[C@H]2CCc3c(C(=O)Nc4ccc(F)c(Cl)c4)ccc(F)c32)N1 [Compound 212, O—((S)-6-Oxopiperidin-2-yl)methyl, N—((S)-4-((3-chloro-4-fluorophenyl)carbamoyl)-7-fluoro-2,3-dihydro-1H-inden-1-yl) carbamate]",EC50,[1],0.27 µM
"O=C1CC(COC(=O)N[C@H]2CCc3c(C(=O)Nc4ccc(F)c(Cl)c4)ccc(F)c32)N1 (stereo partly drawn) [Compound 213, O-(4-Oxoazetidin-2-yl)methyl, N—((S)-4-((3-chloro-4-fluorophenyl)carbamoyl)-7-fluoro-2,3-dihydro-1H-inden-1-yl) carbamate]",EC50,[1],0.33 µM
"COC(=O)NC1(C)CCc2c(C(=O)Nc3ccc(F)c(Cl)c3)ccc(F)c21 (stereo not shown) [Compound 214, O-methyl, N-(4-((3-chloro-4-fluorophenyl)carbamoyl)-7-fluoro-1-methyl-2,3-dihydro-1H-inden-1-yl) carbamate]",EC50,[4],2.6 µM
"O=C(Nc1ccc(F)c(Cl)c1)c1cccc2c1CC[C@@H]2NS(=O)(=O)C1CC1 [Compound 216, (S)—N-(3-chloro-4-fluorophenyl)-1-(cyclopropanesulfonamido)-2,3-dihydro-1H-indene-4-carboxamide]",EC50,[2],0.04 µM
"COC(=O)NC1(C)CCc2c(C(=O)Nc3ccc(F)c(Cl)c3)ccc(F)c21 (stereo not shown) [Compound 217, O-Methyl, N-(4-((3-chloro-4-fluorophenyl)carbamoyl)-7-fluoro-1-methyl-2,3-dihydro-1H-inden-1-yl) carbamate]",EC50,[4],12 µM
"COC(=O)NC1(C)CCc2c(C(=O)Nc3ccc(F)c(Cl)c3)ccc(F)c21 (stereo not shown) [Compound 218, O-Methyl, N-(4-((3-chloro-4-fluorophenyl)carbamoyl)-7-fluoro-1-methyl-2,3-dihydro-1H-inden-1-yl) carbamate]",EC50,[4],1.9 µM
"CC1(NC(=O)OCc2ccccn2)CCc2c(C(=O)Nc3ccc(F)c(Cl)c3)ccc(F)c21 (stereo not shown) [Compound 219, O-pyridin-2-ylmethyl, N-(4-((3-chloro-4-fluorophenyl)carbamoyl)-7-fluoro-1-methyl-2,3-dihydro-1H-inden-1-yl) carbamate]",EC50,[4],1.5 µM
